PMC5905120, “An innovative immunotherapeutic strategy for ovarian cancer: CLEC10A and glycomimetic peptides” (Journal for Immunotherapy of Cancer, 2018)
“Also recorded” adds a separate entry of the source. Bridges are numbered along the chain shown (N, C = ends). Roman numbers before positions name the chains, in order. Where no end group is shown, it is not given here.

Key:
PD-1 = details: patients with ovarian cancer; ref [106], [107]; cited from earlier work
Excerpt: Paclitaxel is currently used as a chemotherapeutic drug that acts by stabilizing microtubules and arresting cells in the cell cycle at the G2/M boundary. Paclitaxel is often combined with a platinum-based drug. Patients treated with these drugs experience a significant level of toxicity. […] However, because sv6D induces proliferation of immune cells, initiation of treatment should perhaps occur after the cell cycle inhibitory action of paclitaxel has dissipated. Pat ...

ASGPR-1 [1] = experiment: Inhibition of svL4 binding to ASGPR-1; parameters: species or system human; details: 75 μM asialofetuin, 0.2 μM svL4
Protocol: Solid-phase binding assays were performed with streptavidin-, protein A/G-, or Nickel-coated microtiter plates (Pierce). His-tagged or Fc-fusion recombinant receptors (R&D Systems, Minneapolis, MN) were reconstituted in PBS. Sufficient receptors were added to wells to saturate the coating. His-tagged receptors were added to each well at a 5-fold excess over the stated capacity of the Ni coating to minimize non-specific binding of the peptide. […] The wells were washed four times with binding buffer and then incubated with 50 μL of 1 μg/mL streptavidin conjugated with peroxidase (Sigma-Aldrich) for 1 h. The wells were washed five times with binding buffer and 50 μL of peroxidase substrate (1-Step™ Ultra TMB, Pierce) were added. After several minutes to allow color development, the reaction was stopped with 50 μL 1 M H3PO4 and absorbance was measured at 450 nm. Bound streptavidin was quantitated by the specific activity of peroxidase (absorbance/ng protein conjugate/min) under the conditions of the assay.
Corresponding values for binding of svL4 to CLEC10A and ASGPR-1 of 0.24 ± 0.04 μM and 0.21 ± 0.03 μM, respectively, were obtained.

ASGPR-1 [2] = details: cited from earlier work
Protocol: The type II C-type lectin asialoglycoprotein receptor-1 (ASGPR-1, Ashwell-Morell receptor, CLEC4H1) on hepatic cells also binds GalNAc-containing structures. ASGPR-1 has a 60-fold greater preference for GalNAc over Gal. Each healthy rat hepatocyte expresses 4 to 5 × 10^5 molecules of ASGPR-1 as binding sites for asialo-orosomucoid or 1.8 × 10^6 molecules as determined by an ASGPR-1-targeted antibody, which provides a surface concentration for the receptor of 0.8 to 1 μM. […] Corresponding values for binding of svL4 to CLEC10A and ASGPR-1 of 0.24 ± 0.04 μM and 0.21 ± 0.03 μM, respectively, were obtained. […] Asialofetuin, a multi-glycosylated pro ...

[3] = system: ID8 ovarian cancer in C57BL/6 mice; experiment: Murine ovarian cancer model (ID8), sv6D and paclitaxel study; assay type: in vivo, mouse (C57BL/6)
Excerpt: Mantel-Cox log-rank test, p (sv6D vs. PBS) = < 0.0001. Paclitaxel, brown; sv6D from day 45, blue; paclitaxel plus sv6D from day 100, purple; cremophor, yellow; PBS, black

human CLEC10A = molecular target: T1, human CLEC10A (Homo sapiens, UniProt Q8IUN9); experiment: Solid-phase binding to recombinant human CLEC10A; details: for binding to CLEC10A: Fig. 2a, representative of 3 independent experiments
T1 construct: purchased R&D Systems
T1 sequence (Q8IUN9 61-316 limits assumed): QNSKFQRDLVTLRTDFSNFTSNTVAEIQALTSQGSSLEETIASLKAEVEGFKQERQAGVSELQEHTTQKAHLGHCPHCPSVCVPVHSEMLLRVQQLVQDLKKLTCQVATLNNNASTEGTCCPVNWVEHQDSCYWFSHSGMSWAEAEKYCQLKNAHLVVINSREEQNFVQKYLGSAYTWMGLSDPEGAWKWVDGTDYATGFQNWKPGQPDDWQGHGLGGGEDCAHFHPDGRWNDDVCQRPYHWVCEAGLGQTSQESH
Protocol: (§1) Solid-phase binding assays were performed with streptavidin-, protein A/G-, or Nickel-coated microtiter plates (Pierce). His-tagged or Fc-fusion recombinant receptors (R&D Systems, Minneapolis, MN) were reconstituted in PBS. Sufficient receptors were added to wells to saturate the coating. His-tagged receptors were added to each well at a 5-fold excess over the stated capacity of the Ni coating to minimize non-specific binding of the peptide. Wells were washed three times with binding buffer (25 mM Tris HCl, pH 7.4, 150 mM NaCl, 0.05% Tween-20) to remove unbound receptor and 50 μL of 2 μM biotinylated peptide in binding buffer were added and allowed to incubate for 1 h. The wells were washed four times with binding buffer and then incubated with 50 μL of 1 μg/mL streptavidin conjugated with peroxidase (Sigma-Aldrich) for 1 h. The wells were washed five times with binding buffer and 50 μL of peroxidase substrate (1-Step™ Ultra TMB, Pierce) were added. After several minutes to allow color development, the reaction was stopped with 50 μL 1 M H3PO4 and absorbance was measured at 450 nm. Bound streptavidin was quantitated by the specific activity of peroxidase (absorbance/ng protein conjugate/min) under the conditions of the assay.
(§2) Solid-phase binding assays were performed with recombinant human receptors. Three variations of the binding assay were used in this study, all of which allowed the arms of the tetravalent peptide to have full flexibility. (i) Biotinylated peptide was bound in microtiter wells coated with streptavidin and incubated with recombinant human receptors. After extensive washing, the bound receptor was measured by peroxidase conjugated to a receptor-specific antibody. (ii) The extracellular domains of receptors, which were fused with the Fc domain of immunoglobulin IgG, were bound in wells coated with protein A/G. Biotinylated peptide was incubated with the receptors and, after extensive washing, bound peptide was measured with streptavidin conjugated with peroxidase. Or (iii), recombinant receptors with a poly-His tag were bound to Nickel-coated wells and incubated with biotinylated peptide. svL4 and sv6D contain His residues (see Table 1) and can bind to the Ni coating, which was minimized by adding sufficient poly-His-tagged receptor to saturate the Ni coating.

human ASGPR-1 = molecular target: T2, human ASGPR-1 (Homo sapiens, UniProt P07306); experiment: Solid-phase binding to recombinant human ASGPR-1; details: for binding to ASGPR-1: Fig. 2a, representative of 3 independent experiments
T2 construct: purchased R&D Systems
T2 sequence (P07306 62-291 limits assumed): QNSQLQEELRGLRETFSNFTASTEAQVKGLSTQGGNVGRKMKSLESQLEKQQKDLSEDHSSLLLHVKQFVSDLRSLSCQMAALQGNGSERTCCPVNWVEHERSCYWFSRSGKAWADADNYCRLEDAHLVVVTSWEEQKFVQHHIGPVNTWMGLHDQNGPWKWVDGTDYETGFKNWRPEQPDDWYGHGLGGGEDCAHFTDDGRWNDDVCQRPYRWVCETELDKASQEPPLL
Protocol: as §1, §2

[4] = system: peritoneal cells of C57BL/6 mice; experiment: Peritoneal immune cell populations by flow cytometry, C57BL/6 mice; assay type: in vivo, mouse (C57BL/6); details: 1 nmole/g s.c., 5-day period, Fig. 5 (non-binding control)
Protocol: Healthy C57BL/6 male mice, 10 weeks old, were injected subcutaneously with peptides on alternate days. Peritoneal cells were isolated from mice 24 h after dosing by injecting ice cold PBS (containing 3% FBS) into the peritoneal cavity, gently massaging the abdomen, and then collecting the fluid, which was transferred into K2EDTA-treated tubes for evaluation of specific biomarkers. Cells from three mice in each group were pooled, counted and divided among FACS tubes (1 × 10^6 cells per tube). Cells were washed once in PBS containing 3% FBS, then stained with 0.25 to 1 μg of fluorescently conjugated antibody per 10^6 cells in 100 μL of buffer as recommended by the manufacturer (Table 2).
Cells were incubated with the antibodies for 30 min at 4 °C in the dark. Following staining, the cells were washed two times with PBS/3% FBS and immediately analyzed with a MACSQuant flow cytometer (Miltenyi Biotech, Inc., San Diego, CA). Compensation was performed using single stain tubes for each color present in the analysis as well as an unstained control sample. Collection of flow cytometric data and analysis with FlowJo software, version 10.0.6 (FlowJo, LLC, Ashland, OR) were performed by Biomodels LLC (Watertown, MA).
To examine whether increases occurred in mature immune cells, peritoneal cells from Balb/c and C57BL/6 mice were analyzed by flow cytometry after cells were stained with the markers listed in Table 2. […] To explore this observation more extensively, svL4 or sv6D was injected into C57BL/6 mice on day 0, 2 or 4. Peritoneal cells were examined by flow cytometry 24 h after each injection. Shown in Fig. 5 are results expressed as cell counts for F4/80 CD11b CD86 (mature, active macrophages); CD11c (DCs); CD11c CD 86 (activated DCs); CD4 CD69 (activated T cells); CD8 CD69 (activated cytotoxic T cells); NK1.1 CD3^+ CD69 (activated NKT cells); NK1.1 CD3^− CD69 (activated NK cells); CD19 (B cells); and CD19 CD73 CD80 CD273 (memory B cells). The numbers of these mature, activated cells continued to increase with each injection.
Fig. 5 Expansion of peritoneal cells in C57BL/6 mice. Mice were injected subcutaneously at a dose of 1 nmole/g body weight of svL4, sv6D or svC1. Cells in each population recovered in a peritoneal lavage are expressed as cell counts (in thousands). Cells from three mice in each treatment group were pooled for analysis. The number of cells in each population was normalized to the average recovery of total cells from all groups. For each cell type, the left-hand, middle and right-hand set of bars represent samples from mice treated with svL4, sv6D or svC1, respectively. Mice were injected on days 0, 2 and 4, and cells were collected 24 h after each injection. Day 1, open bar; day 3, grey bar; day 5, black bar. Populations that express activation markers are indicated by an asterisk

[5] = Antigenicity assay in mouse sera; assay type: in vivo; details: 1 nmole/g s.c., alternate days for 3 months; sera of 8 treated mice, Fig. 8
Protocol: The sequence of one arm of svL4 or sv6D was conjugated to keyhole limpet hemocyanin (KLH) and injected into rabbits at two week intervals (total of 3 injections) (New England Peptide, Inc., Gardner, MA). Two weeks after the final injection, sera were prepared. Mice were injected with a peptide every other day over a period of 3 months (total ~ 45 injections), blood was then collected by cardiac puncture and sera were prepared. Rabbit serum was diluted 1:10, whereas mouse serum was diluted 1:1 or 1:5 with PBS containing 0.05% Tween-20 (PBST). Sera were incubated in microtiter wells coated with protein A/G (Pierce) for 90 min. The wells were washed three times with PBST, and then incubated with 50 μL of 1 μM biotinylated svL4 or sv6D for 1 h. The wells were washed four times with PBST, incubated 1 h with 1 μg/mL streptavidin-peroxidase conjugate, and washed four times with PBST. Peroxidase activity was assayed as above under Binding Assays.
Fig. 8 Test for antigenicity of svL4 and sv6D. Anti-sera were generated in rabbits against KLH-conjugates of the sequences of svL4 or sv6D and diluted 1:10. Mouse sera were collected after alternate-day injections of svL4 over 3 months, diluted 1:1 with PBS and added to protein-A/G-coated wells. Biotinylated svL4 or sv6D was added to wells and bound peptide was detected with a streptavidin-peroxidase conjugate. […]

[6] = molecular target: recombinant human CLEC10A (C-type lectin receptor family member 10A) (human) (UniProt Q8IUN9); experiment: ELISA; solid-phase binding assay as a function of the concentration of peptide; KD from double-reciprocal plots of the binding curves; extensive wash steps
[7] = molecular target: recombinant human asialoglycoprotein receptor-1 (ASGPR-1) (human) (UniProt P07306); experiment: as above
[8] = double-reciprocal plot of binding vs. peptide concentration, biotinylated peptide, binding buffer 25 mM Tris HCl pH 7.4, 150 mM NaCl, 0.05% Tween-20, 1 h, streptavidin-peroxidase 450 nm, ± S.D., 4 separate assays

In the case of “pembroliumab: antibody against the inhibitory receptor PD-1”, the overall response rate (PD-1) is given as 15%.

In the case of “Asialofetuin: multi-glycosylated protein”, the “inhibition of binding of svL4 to ASGPR-1” value (ASGPR-1 [1]) is listed as 53% and the IC50 (ASGPR-1 [2]; ASGPR-1, ref [43]) is listed as 45.6 ± 2.7 µM.

For `CC(=O)O[C@H]1C(=O)[C@@]2(C)[C@H]([C@H](OC(=O)c3ccccc3)[C@]3(O)C[C@H](OC(=O)[C@H](O)[C@@H](NC(=O)c4ccccc4)c4ccccc4)C(C)=C1C3(C)C)[C@]1(OC(C)=O)CO[C@@H]1C[C@@H]2O` [paclitaxel], the “body weight increase (ascites)” value ([3]; aggressive disease, two weeks of treatment, sv6D 0.1 nmole/g s.c. alternate days, paclitaxel 18 μg/g i.p. days 45, 47, 49) was “had not significantly increased”, the “ρ of body weight on day 58 vs. PBS or no treatment” value ([3]; paclitaxel 18 μg/g i.p. days 45, 47, 49, t test, Fig. 6a) was less than 0.05 and the median survival ([3]; paclitaxel alone, PBS control 122 days, Fig. 6c) was “approximately 141 days”. The “ρ of body weight on day 121, paclitaxel vs. PBS” value ([3]; t test, Fig. 6b) was less than 0.05.

In the case of [(VQATQS- GGGS)2K]2K-NH2 [svC1], the “binding to CLEC10A” value (human CLEC10A) is reported as “near the level of blank wells; also recorded: does not bind to CLEC10A”, the “binding to ASGPR-1” value (human ASGPR-1) is reported as “near the level of blank wells” and the “expansion of specific cell types” value [4] is reported as “did not increase significantly”.

With “I: NQHTPRGGGSKK-NH2 / II: NQHTPRGGGSK / III: NQHTPRGGGS / IV: NQHTPRGGGS (amide I:11-IV:C, I:12-II:C, II:11-III:C) [sv6D]” the Kd (human CLEC10A; [8]) was 0.15 ± 0.02 µM, the Kd (human ASGPR-1; [8]) was 0.12 ± 0.01 µM and the “antibodies that bind the peptides in mouse sera” value [5] was “negative”.

With [(VSNQH- GGGS)2K]2K-NH2 [svD2] the “binding to CLEC10A” value (human CLEC10A) was “bound weakly” and the “binding to ASGPR-1” value (human ASGPR-1) was “bound weakly”.

For “nivolumab: antibody against the inhibitory receptor PD-1”, the overall response rate (PD-1) is listed as 15%.

For `CC(=O)N[C@H]1C(O)O[C@H](CO)[C@H](O)[C@@H]1O` (mixture of isomers) [GalNAc, N-acetylgalactosamine], the “preference of ASGPR-1 for GalNAc over Gal” value (ASGPR-1 [2]; ref [39]) is given as 60 fold.

B1: svL4, tetravalent peptide [(…-GGGS)2K]2K-NH2 (designed binder)
chain 1: VQATQSNQHTPRGGGS
chain 2: Lys-Lys-Lys-NH2
modifications: not fully specified; printed as [(VQATQSNQHTPR-GGGS)_2_K]_2_K-NH_2_; also: tetravalent: four arms joined by C-termini to branched tri-lysine core
B1 gave a Kd [6] of 0.24 µM and a Kd [7] of 0.21 µM.
